Measured values as given in patent publication US20140066385A1, “METHOD FOR TREATING CANCER BY COMBINED USE OF DRUGS” (Astellas Pharma Inc., priority 2011, published 2014).

Biological target: T1, purified pig brain-derived tubulin (Sus scrofa, UniProt P02550+P02554)
T1 construct: purified pig brain-derived tubulin (final concentration: 2 mg/mL); purchased Cytoskeleton, Inc. (Denver, Colo., USA); host or cells: pig brain (tissue-purified)
Assay: Example 7: fluorescence-based assay of tubulin polymerization reaction
Assay type: biochemical
Procedure: S-nitroso-N-acetyl-D,L-penicillamine (SNAP), which is a NO donor, was purchased from Cayman Chemical Co. (Ann Arbor, Mich., USA) and used. A tubulin polymerization analysis kit was purchased from Cytoskeleton, Inc. (Denver, Colo., USA) and used. For paclitaxel, a paclitaxel included in the analysis kit was used as paclitaxel. Docetaxel was purchased from Sigma-Aldrich Co. (St. Louis, Mo., USA) and was used as docetaxel.
A fluorescence-based assay of tubulin polymerization reaction was carried out according to the manufacturer's instruction of the kit. That is, purified pig brain-derived tubulin (final concentration: 2 mg/mL) and SNAP (final concentration: 200 or 500 μmol/L) were incubated at room temperature for 15 minutes or longer in the buffer solution included in the kit. Subsequently, paclitaxel (final concentration: 3 μmmol/L) or docetaxel (final concentration: 1 μmol/L), and […] (final concentration: 1 mmol/L) were added to this buffer mixture, and then was incubated for 60 minutes at 37° C. During this incubation, the fluorescence intensity (measurement wavelength: excitation 350 nm/fluorescence 435 nm) was measured every one minute by using a microplate reader (Spectramax, Molecular Devices, LLC, Sunnyvale, Calif., USA). The value of fluorescence intensity was expressed as a percentage relative to the SNAP and taxane-untreated group by using the value obtained 60 minutes after the initiation of the reaction, which corresponded to the equilibrium steady-state phase, and the average value for three experiments was taken as the value.
The results are expressed as the mean value (Mean)±standard error (SEM) of five independent experiments. A comparison between a paclitaxel- or docetaxel-treated group and an untreated group was carried out by an unpaired statistical test (Student's t-test) of the difference between two groups. A comparison between a SNAP-untreated group (control group) and SNAP-treated groups (200 μmol/L and 500 μmol/L) in the presence or absence of the taxane-family drugs was carried out by Dunnett's multiple comparison test. A difference value of less than 5% was considered to be statistically significant. For the data processing, Graphpad Prism version 5.03 was used.

[1] = SNAP 200 or 500 μmol/L, 60 minutes

T1 sequence (P02554 whole entry): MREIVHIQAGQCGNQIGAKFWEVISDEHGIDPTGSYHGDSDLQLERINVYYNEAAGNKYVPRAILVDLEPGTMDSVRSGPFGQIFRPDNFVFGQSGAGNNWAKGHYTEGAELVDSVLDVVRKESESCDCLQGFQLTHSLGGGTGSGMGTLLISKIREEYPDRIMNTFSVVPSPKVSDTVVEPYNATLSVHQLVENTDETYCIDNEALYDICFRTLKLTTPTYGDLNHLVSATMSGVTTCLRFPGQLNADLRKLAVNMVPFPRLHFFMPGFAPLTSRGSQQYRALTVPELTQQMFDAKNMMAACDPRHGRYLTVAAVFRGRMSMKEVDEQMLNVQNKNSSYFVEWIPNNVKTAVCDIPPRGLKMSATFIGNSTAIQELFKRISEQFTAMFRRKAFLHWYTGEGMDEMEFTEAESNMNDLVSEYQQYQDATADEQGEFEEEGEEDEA
T1 sequence (P02550 whole entry): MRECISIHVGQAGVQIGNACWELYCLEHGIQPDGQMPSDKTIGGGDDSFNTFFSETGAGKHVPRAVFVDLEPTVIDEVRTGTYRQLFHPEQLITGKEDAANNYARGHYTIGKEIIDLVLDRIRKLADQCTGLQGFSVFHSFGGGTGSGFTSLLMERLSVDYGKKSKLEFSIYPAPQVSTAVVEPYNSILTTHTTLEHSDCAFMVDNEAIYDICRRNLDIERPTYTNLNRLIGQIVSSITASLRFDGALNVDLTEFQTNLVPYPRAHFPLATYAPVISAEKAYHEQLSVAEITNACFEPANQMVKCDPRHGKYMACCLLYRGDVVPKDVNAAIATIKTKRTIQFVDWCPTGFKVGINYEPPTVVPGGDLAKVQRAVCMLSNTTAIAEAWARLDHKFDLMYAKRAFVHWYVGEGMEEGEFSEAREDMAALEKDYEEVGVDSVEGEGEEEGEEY

action of SNAP on the spontaneous tubulin polymerization reaction (SNAP 200 or 500 μmol/L, absence of taxanes, 60 minutes)	action of SNAP on the tubulin polymerization reaction promoted by docetaxel [1]	action of SNAP on the tubulin polymerization reaction promoted by paclitaxel [1]	tubulin polymerization (fluorescence intensity) as compared with the taxane-untreated group (docetaxel final concentration 1 μmol/L, 60 minutes after initiation, P<0.001)	Compound
significantly suppressed	significantly suppressed	significantly suppressed	–	CC(=O)NC(C(=O)O)C(C)(C)SN=O (racemic) [SNAP, S-nitroso-N-acetyl-D,L-penicillamine]
–	–	–	184.1%	CC(=O)O[C@@]12CO[C@@H]1C[C@H](O)[C@@]1(C)C(=O)[C@H](O)C3=C(C)[C@@H](OC(=O)[C@H](O)[C@@H](NC(=O)OC(C)(C)C)c4ccccc4)C[C@@](O)([C@@H](OC(=O)c4ccccc4)[C@H]21)C3(C)C [docetaxel]
